Measured values: patent US20250228899A1, “GENERATING AND UTILIZING ADULT HEPATOCYTE ORGANOIDS” (University of Washington, priority 2021, published 2025)

System: adult human hepatocytes
Assay: Adult human hepatocyte organoids grown in different concentrations of A83-01
Format: cell-based
Settings: albumin secretion and organoid cross-sectional area readouts
Procedure: In this Example, adult human hepatocytes were grown in different concentrations of A83-01, ranging from 0 nM to 40 nM. FIG. 16 illustrates albumin secretion of hepatocytes grown with 6 different concentrations of A83-01 measured by human albumin ELISA. FIG. 17 illustrates average cross-sectional area of organoids in individual wells grown in 4 different concentrations of A83-01 ranging from 0 to 100 nM. Data is represented as the mean, plus or minus standard deviation of more than 20 wells. FIG. 18 illustrates albumin secretion measured by human Albumin ELISA, comparing adult human hepatocyte organoids grown in 5 different concentrations of A83-01 ranging from 0 nM to 40 nM. The results of these studies illustrate that medium containing less than 50 nM of A83-01 is effective for adult hepatocyte growth.

A83-01 concentration in medium effective for adult hepatocyte growth: less than 50 nM
Compound: Cc1cccc(-c2nn(C(=S)Nc3ccccc3)cc2-c2ccnc3ccccc23)n1 [A83-01]
